For the test, the system named is cos-7 cells. The test can be described thus: DNA transfection: luciferase expression relative to Lipofectamine 2000. It is filed as cell-based. The note with it: 300 ng Luciferase DNA per well, luciferase assay after 48 hours. As for the experimental part: 14,000 cos-7 cells (ATCC, Manassas, Va.) were seeded into each well of a solid white or clear 96 well plate (Corning-Costar, Kennebunk, Me.) and allowed to attached overnight in growth medium, composed of: 500 ml phenol red minus DMEM, 50 ml heat inactivated FBS, 5 ml penicillin/streptomycin (Invitrogen, Carlsbad, Calif.).
A small liquot of lipid was tranferred to an Eppendorf tube. Based on the mass of the lipid in the tube, sterile 25 mM sodium acetate buffer was added to each tube to yield a concentration of 60 mg/ml. The resulting mixture was vortexed for approximately 20 minutes until the lipid was fully dissolved. DNA was prepared based on 300 ng DNA per well of a 96-well plate. 291 μg of Lc DNA was dissolved in 9210 μl of 25 mM sodium acetate buffer. Aliquots of 30 μl of DNA solution were added to each well expect for the last column which was reserved for the Lipo2000 standard. For the last column of the plate, 61 μg of DNA was added to 1940 μl Optimem. 150 μl of media/Optimem was added to each well of plates. 50 μl of lipid solution was aliquoted into wells of robot plate. The following amounts were aliquoted to obtain the correct ratios of DNA to lipid:
In quadruplicate, 30 μl of lipid was aliquoted onto DNA in four rows for each ratio. For the Lipo2000 control (2.5 w/w ratio to DNA), 152.5 μg of Lipo sample was aliquoted into 1847.5 μl of Optimem. 30 μl of this solution was aliquoted onto DNA in the Optimem in the last columns of each plate. The plates were incubated for 15-20 minutes, and then 36.5 μl of lipid+DNA complexes was transferred into 150 μl of media/Optimem, then add to cells. The media was aspirated off the cells, and 105 μl of the lipid/DNA/media/Optimem solution was added to the cells. The luciferase assay was performed after 48 hours.
Luminescence was analyzed using bright-glo assay kits (Promega). Briefly, 100 μl of bright-glo solution was added to each well of the microtiter plate containing media and cells. Luminescence was measured using a Mithras Luminometer (Berthold, Oak Ridge, Tenn.). In some cases, a neutral density filter (Chroma, Brattleboro, Vt.) was used to prevent saturation of the luminometer. A standard curve for Luciferase was generated by titration of Luciferase enzyme (Promega) into growth media in white microtiter plates. Luciferase in ng per well are calculated for each of the lipids at 2.5 w/w, 5 w/w, 10 w/w, 15 w/w, 20 w/w, and 25 w/w lipid to DNA based on the standard curve.
The table below summarizes the data as a % of the luciferase activity obtained from the use of Lipofectamine 2000. The table indicates the best lipids for transfection.

With `CCCCCCCCCCOC(=O)CCN(CCCOC)CCC(=O)OCCCCCCCCCC` [LB1], the “Luciferase expression as a percentage of that achieved using Lipofectamine 2000” value (“Luciferase expression as a percentage” below) is on record as 0.1% (lipid/DNA 2.5 w/w); 0.1% (lipid/DNA 5 w/w); 0.1% (lipid/DNA 10 w/w); 0.1% (lipid/DNA 15 w/w); 0.1% (lipid/DNA 20 w/w); 0.2% (lipid/DNA 25 w/w).

On to `CCCCCCCCCCOC(=O)CCN(CCC(=O)OCCCCCCCCCC)CCC1OCCO1` [LB6], for which the “Luciferase expression as a percentage” value is 0.1% (lipid/DNA 2.5 w/w); 0.1% (lipid/DNA 5 w/w); 0.1% (lipid/DNA 10 w/w); 0.1% (lipid/DNA 15 w/w); 0.1% (lipid/DNA 20 w/w); 0.1% (lipid/DNA 25 w/w).

For `CCCCCCCCCCOC(=O)CCN(CCC(=O)OCCCCCCCCCC)CC1COC(C)(C)O1` (stereo not drawn) [LB7], the “Luciferase expression as a percentage” value is given as 0.1% (lipid/DNA 2.5 w/w); 0.1% (lipid/DNA 5 w/w); 0.1% (lipid/DNA 10 w/w); 0.1% (lipid/DNA 15 w/w); 0.1% (lipid/DNA 20 w/w); 0.2% (lipid/DNA 25 w/w).

As to `CCCCCCCCCCOC(=O)CCN(CCOC)CCC(=O)OCCCCCCCCCC` [LB10], the “Luciferase expression as a percentage” value worked out at 0.1% (lipid/DNA 2.5 w/w); 0.1% (lipid/DNA 5 w/w); 0.1% (lipid/DNA 10 w/w); 0.1% (lipid/DNA 15 w/w); 0.1% (lipid/DNA 20 w/w); 0.1% (lipid/DNA 25 w/w).

`CCCCCCCCCCOC(=O)CCN(CCOCC)CCC(=O)OCCCCCCCCCC` [LB11]: the “Luciferase expression as a percentage” value by setting is: (lipid/DNA 2.5 w/w) 0.1%; (lipid/DNA 5 w/w) 0.1%; (lipid/DNA 10 w/w) 0.1%; (lipid/DNA 15 w/w) 0.1%; (lipid/DNA 20 w/w) 0.1%; (lipid/DNA 25 w/w) 0.1%.

As to `CCCCCCCCCCOC(=O)CCN(CCC(=O)OCCCCCCCCCC)CC(OC)OC` [LB13], the “Luciferase expression as a percentage” value is, setting by setting: (lipid/DNA 2.5 w/w) 0.1%; (lipid/DNA 5 w/w) 0.1%; (lipid/DNA 10 w/w) 0.1%; (lipid/DNA 15 w/w) 0.1%; (lipid/DNA 20 w/w) 0.1%; (lipid/DNA 25 w/w) 0.1%.

Turning to `CCCCCCCCCCOC(=O)CCN(CCC(=O)OCCCCCCCCCC)CC1CCCO1` (stereo not drawn) [LB15], the “Luciferase expression as a percentage” value turned out to be 0.1% (lipid/DNA 2.5 w/w); 0.1% (lipid/DNA 5 w/w); 0.1% (lipid/DNA 10 w/w); 0.1% (lipid/DNA 15 w/w); 0.1% (lipid/DNA 20 w/w); 0.1% (lipid/DNA 25 w/w).

As to `CCCCCCCCCCOC(=O)CCN(CCC(=O)OCCCCCCCCCC)CCc1ccc(OC)c(OC)c1` [LB17], the “Luciferase expression as a percentage” value amounted to 0.1% (lipid/DNA 2.5 w/w); 0.1% (lipid/DNA 5 w/w); 0.1% (lipid/DNA 10 w/w); 0.1% (lipid/DNA 15 w/w); 0.1% (lipid/DNA 20 w/w); 0.1% (lipid/DNA 25 w/w).

The values above are taken from US9006487B2, “Amine-containing lipids and uses thereof” (Massachusetts Institute of Technology, priority 2005, dated 2015).
